Experimental data from US9121847B2, “Three-dimensional microfluidic platforms and methods of use thereof” (Massachussetts Institute of Technology, priority 2008, dated 2015).
Where two headings read alike, the source gives them in different places. Each block holds one substance with its values, some of them ahead of it.

How the values were obtained:
[1] = system: human dermal microvascular endothelial cells (HMVEC); conditions: for relative normalized length and area change of cell migration: collagen gel polymerized at pH 7.4
Description: Endothelial cell culture. The cell suspension media was prepared with 2×10^6 cells/mL and filled into the cell culturing channel. After filling, the device was kept in the incubator for 30 minutes for cells to settle down and attach on the substrate before the medium was replaced. The cell attachments duration ranges from 30 minutes to several hours depending on the cell types. Human dermal microvascular endothelial cells (HMVEC) were commercially obtained (Lonza, N.J.) and expanded with endothelial growth media (EGM-2MV; Lonza, N.J.) on regular culture flasks pre-coated with collagen I (BD Biosciences, MA) for no more than 9 passages. Recombinant human vascular endothelial growth factor (VEGF; R&D Systems, MN) was mixed with cell culturing media with working concentration of 20 ng/mL and then was filled into the condition channel to generate gradient.
Measuring and quantification of cell migration. The device was kept in incubator containing 5% CO2 at 37° C. and cell migration was monitored by phase contrast microscopy (Nikon Instruments, NY) daily. The length and area of migrated cell outlines were measured by ImageJ. Immunofluorescence staining was performed to visualize the final cell migration result. Actin filaments and nuclei were stained with Rhodamine-Phalloidin (Sigma-Aldrich, Switzerland) and DAPI (Sigma-Aldrich, Switzerland), respectively.
Quantified chemotaxis experiments with endothelial cells. […] Vascular Endothelial Growth Factor-A (VEGF), a known stimulant of endothelial cell migration^23,24 was applied to the condition channel, generating a VEGF gradient in gel scaffold between the cell channel and the condition channel. The control channel was filled with normal cell culture medium without VEGF as a control. […] Length and area changes of migrating cells into collagen scaffolds of different stiffness (pH 7.4 and pH 11) were observed and quantified over several days.
Cells were fixed after 6 days of culture with 5 days of VEGF gradient application, and stained by Rhodamine-Phalloidin and DAPI. White dotted lines indicate the outlines of gel scaffold and small rectangles in scaffold indicate the PDMS posts of 150 μm×150 μm. “0.2%” indicates a collagen concentration of 2.0 mg/mL. […] FIG. 20D is a graph of normalized relative length of migrated cells in the collagen gel scaffold polymerized at pH 7.4 with concentration of 2.0 mg/mL. ‘No VEGF’ serves as the negative control without VEGF gradient. VEGF was applied daily for various durations. ‘VEGF at day 1’ means that VEGF was first applied 1 day after cell seeding. VEGF at day 2 or 3 means VEGF was first applied 2 or 3 days after cell seeding. The relative length is calculated as the difference from the control side. FIG. 20E is a graph of normalized relative area of migrated cells in the collagen gel scaffold polymerized at pH 7.4 with concentration of 2.0 mg/mL. FIGS. 20F and G are graphs of normalized relative length and area of migrated cells in the collagen gel scaffold polymerized at pH 11.0 with concentration of 2.0 mg/mL. All graphs made by average of the value in 4 devices with n=8 (total 8 scaffolds) under one condition.
To evaluate the sensitivity of this assay, VEGF was applied to the condition channel 1, 2 or 3 days after cell seeding. […] For the normalized values, the measured data were normalized to their own baseline data at the initial time point (Eq. 1). Relative normalized values were assessed as the difference between the normalized data of the condition side and the control side. […]

[2] = Dextran diffusion from condition channel to cell channel through collagen gel scaffold, three-channel device; format: physicochemical; conditions: 40 kDa dextran; for time of initial diffusion from condition channel through scaffold to cell channel: 0.5 μg/mL, collagen 2.0 mg/mL polymerized at pH 7.4
Source text: Media exchange, dextran diffusion experiments and flow application. The filled media should be kept as droplets on inlets and outlets to avoid evaporation of the media. Aspirating an existing droplet and adding a new droplet of media on one side can generate micro flow due to capillary force to replace the old media in the channel with minimal shear stress on the cells. To apply mechanical angiogenic factors such as fluid shear stress or pressure gradient, fluidic circuits consisting of tubes and pumps can be connected to inlets and outlets of the device to apply precisely controlled flow. […] The diffusion profile was taken by fluorescence microscope (Nikon Instruments, NY) and analyzed by Matlab to get the intensity graph from images. […] Stable and linear gradient was achieved and maintained for several hours. […] The collagen scaffold used had 2.0 mg/mL concentration polymerized at pH 7.4.
Equilibrium was established after several hours and a linear concentration profile was maintained for 10 hours.

U87MG cells = test: Microfluidic chemotaxis evaluation of U87MG cells with hEGF gradient; format: cell-based, human; conditions: 20 or 200 ng/mL hEGF in condition channel; collagen scaffold
[3] = collagen scaffolds polymerized at pH 11.0 (stiff gels)

Substance: VEGF
- relative normalized length and area change of cell migration ([1]; VEGF added 3 days after cell seeding): did not
- relative normalized length and area change of cell migration ([1]; VEGF applied 1 day after cell seeding): induced cell migration
- relative normalized length and area change of cell migration ([1]; VEGF applied 2 days after cell seeding): induced cell migration
- relative normalized values of the area change [1, 3]: too small to be detected
- relative normalized values of the length change [1, 3]: significant differences of cell migration

- time of initial diffusion from condition channel through scaffold to cell channel [2]: 30 min
- time of initial diffusion from condition channel through scaffold to cell channel ([2]; listed as Dextran): ≤ 30 min
- duration for which linear concentration profile was maintained ([2]; collagen gel scaffold, after equilibrium): 10 h
Substance: dextran

Substance: hEGF: human epidermal growth factor (NSDSECPLSHDGYCLHDGVCMYIEALDKYACNCVVGYIGERCQYRDLKWWELR; UniProt P01133 971-1023, looked up)
- migration speed of U87MG cells, condition side vs control side (U87MG cells): higher than that of the control side
